Experimental data: article PMC4821443 (MedChemComm, 2015)

Columns and labels:
[1] = system: panel of 60 human cancer cell lines; experiment: NCI-60 cell line anti-cancer screen, whole panel summary; assay type: cell-based; conditions: read-out: average GI50 value against all the cancer cell lines screened, NCI-60 panel
[2] = system: breast cancer subpanel (six cell lines); experiment: NCI-60 screen, breast cancer subpanel summary; assay type: cell-based; conditions: Homo sapiens, T47D, read-out: GI50 values range, breast cancer subpanel
[3] = target: tubulin (Sus scrofa, UniProt P02550+P02554); experiment: In vitro tubulin polymerization assay; assay type: biochemical; conditions: at concentrations as high as 200 µM (data not shown)
Chain of tubulin (P02550 whole entry): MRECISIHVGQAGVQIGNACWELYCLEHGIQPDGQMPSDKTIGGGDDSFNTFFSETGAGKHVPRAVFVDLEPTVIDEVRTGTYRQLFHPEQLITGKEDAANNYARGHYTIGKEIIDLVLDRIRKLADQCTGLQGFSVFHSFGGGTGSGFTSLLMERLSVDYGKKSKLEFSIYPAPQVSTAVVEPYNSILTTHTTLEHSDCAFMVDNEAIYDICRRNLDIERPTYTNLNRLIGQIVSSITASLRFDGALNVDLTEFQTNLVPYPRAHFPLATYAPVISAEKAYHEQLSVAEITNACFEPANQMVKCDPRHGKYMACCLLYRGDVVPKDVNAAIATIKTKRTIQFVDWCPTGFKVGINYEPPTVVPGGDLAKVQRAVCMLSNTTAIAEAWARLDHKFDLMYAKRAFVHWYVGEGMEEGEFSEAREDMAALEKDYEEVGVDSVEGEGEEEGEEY
Chain of tubulin (P02554 whole entry): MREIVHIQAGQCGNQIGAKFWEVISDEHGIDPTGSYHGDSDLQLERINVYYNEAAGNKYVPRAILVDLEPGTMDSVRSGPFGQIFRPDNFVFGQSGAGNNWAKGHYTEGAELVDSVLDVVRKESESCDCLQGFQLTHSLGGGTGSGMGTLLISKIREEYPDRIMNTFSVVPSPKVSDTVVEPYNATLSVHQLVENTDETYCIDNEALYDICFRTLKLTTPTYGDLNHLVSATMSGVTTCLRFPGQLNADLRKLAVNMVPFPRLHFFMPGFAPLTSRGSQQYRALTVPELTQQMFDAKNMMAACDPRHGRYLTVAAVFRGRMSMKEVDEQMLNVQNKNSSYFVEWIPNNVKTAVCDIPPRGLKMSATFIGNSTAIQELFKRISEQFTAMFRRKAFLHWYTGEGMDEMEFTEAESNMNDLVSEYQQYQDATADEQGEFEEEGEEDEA

Row | Structure (SMILES) | GI50 [1] | GI50 [2] | inhibition of tubulin polymerization [3]
1 | COc1cc(OC)cc(-c2n[nH]nc2-c2c[nH]c3ccccc23)c1 [Compound 11e] | 856 nM | 17 to 76 nM | –
2 | COc1cc(-c2n[nH]nc2-c2cc3ccccc3s2)cc(OC)c1OC [Compound 8a, 4-(benzo[b]thiophen-2-yl)-5-(3,4,5-trimeth-oxyphenyl)-2H-1,2,3-triazole] | – | ≤ 14 nM | –
3 | COc1cc(-c2n[nH]nc2-c2c[nH]c3ccccc23)cc(OC)c1OC [Compound 11d] | 424 nM | 28 to 89 nM | –
4 | COc1cc(-c2nn(C)nc2-c2cc3ccccc3s2)cc(OC)c1OC [Compound 9, 4-(benzo[b]thiophen-2-yl)-2-methyl-5-(3,4,5-trimethoxyphenyl)-2H-1,2,3-triazole] | – | 40 to 1600 nM | failed to inhibit tubulin polymerization
5 | COc1ccc(-c2n[nH]nc2-c2csc3ccccc23)cc1OC [Compound 11b] | – | 630 to 3210 nM | –
